Patent US7271198B2, “Method of treating autoimmune diseases” (Wake Forest University, priority 2000, dated 2007)
Where “and” joins values, the source holds several entries; their conditions need not be identical. Identical values can stand only once.

Tests used:
[1] = test system: IL-10 protein; assay: IL-10 protein secretion by MRL/lpr splenocytes; format: cell-based, mouse; details: MRL/lpr splenocytes stimulated by LPS, Con A, or LPS+IFN-γ, 72 hr
Source text: To determine the effect of TSA and SAHA on IL-10 protein secretion, MRL/lpr splenocytes were stimulated with Con A, LPS, or LPS+IFN-γ for 72 hr in the absence or presence of TSA or SAHA. As shown in the FIG. 11D, splenocytes stimulated with Con A, LPS, or LPS+IFN-γ secreted a mean (±SEM) of 31.8±4.5, 32.3±1.9, and 34.8±4.9 pg/ml, respectively, of IL-10 protein.

[2] = test system: MRL/lpr mice; assay: In vivo TSA in 12 wk MRL/lpr mice (0.5 mg/kg sc, 4 weeks); set-up: species or system mouse
Procedure: TSA was administered to MRL/lpr mice at 12 wks of age coinciding with the time of onset of clinical disease. TSA was given subcutaneously (sc) at a dose of 0.5 mg/kg dissolved in […]; control mice were given the vehicle alone (40 μl DMSO). Proteinuria was assessed as a measure of albumin in mg/mouse/day prior to the initial dose (at 12 wks of age) and after four wks of treatment (at 16 wks of age). […] After four weeks of treatment, nine mice in each group were sacrificed. At necropsy, the weight of the spleens were measured and sera was collected. […] IFN-γ was measured by ellispot assay in splenocytes isolated from vehicle or TSA treated mice.
TSA was administered to MRL/lpr mice at 12 wks of age at the time of onset of clinical disease. TSA was given subcutaneously (sc) at a dose of 0.5 mg/kg dissolved in 40 μl DMSO; control mice were given the vehicle alone (40 μl DMSO). After four weeks of treatment, nine mice in each group were sacrificed. One-half of one kidney was fixed in 10% formaldehyde/PBS, embedded in paraffin, and stained with hematoxylin and eosin. An examiner blinded to the treatment group quantified disease activity as follows: (a) Glomeruli were graded for hypercellularity (0–4), crescent formation (0–4), and inflammation (0–4). (b) The interstitium was graded for inflammation (0–4). Scores were additive (BALB/c mice historically receive scores of 0–0.5). Half of the second kidney was snap-frozen, embedded in OCT, frozen sections cut and analyzed for C3 deposition by immunofluorescence.
In determining whether TSA suppresses autoantibody production anti-dsDNA and anti GBM-auto-antibodies were measured.

[3] = test system: MRL/lpr mice; assay: In vivo TSA in 26 week old MRL/lpr mice (5 mg/kg s.c. daily), proteinuria; set-up: species or system mouse
Source text: The effect of TSA on proteinuria and nitric oxide secretion and increased survival in 26 week old MRL/lpr mice was examined. In this age group, MRL/lpr mice developed full-blown disease with evidence of proliferative immune-complex-mediated glomerulo-nephritis, vasculitis, arthritis, and massive lymphadenopathy. Most of the mice expired by the age of 30 weeks. […] Urine was collected for a 24 hr time period on days 0, 7 and 14, and measured for protein and nitric oxide. Toxicity of TSA is being assessed by monitoring body weight, infection, abnormal behavior and survival of treated mice.

[4] = test system: IL-12 p35 and p40 transcripts; assay: IL-12 p35 and p40 transcripts in MRL/lpr splenocytes; format: cell-based, mouse
Procedure: In this study, the question of whether TSA down-regulates transcription of both IL-12 p35 and p40 subunit mRNA was investigated. […] Splenocytes were stimulated with LPS and IFN-γ for 6 or 18 hr. […] When splenocytes were preincubated with TSA or SAHA for 18 hr and then stimulated with LPS and IFN-γ IL-12 p35 and p40 transcripts were undetectable (FIGS. 9B–D).

[5] = 0.5 mg/kg sc, 4 weeks treatment

CC(/C=C/C(=O)NO)=C\[C@@H](C)C(=O)c1ccc(N(C)C)cc1 [TSA, Trichostatin A]
IL-10 protein secretion [1]: no detectable IL-10 secretion
proteinuria (albumin) ([2]; 0.5 mg/kg sc from 12 wks, after four wks, vs vehicle): prevented an increase in proteinuria
C3 deposition (kidney immunofluorescence) [2, 5]: did not show change
glomerulonephritis and renal score [2, 5]: significant reduction
number of IFN-γ secreting cells (ellispot, splenocytes) ([2]; 0.5 mg/kg sc, four weeks): significant decrement
spleen weight ([2]; 0.5 mg/kg sc, four weeks, vs vehicle): significantly decreased in weight
overall health ([2]; 0.5 mg/kg sc, vs vehicle): signs of better overall health
anti-dsDNA and anti GBM auto-antibodies ([2]; TSA vs vehicle, 4 weeks treatment): no significant change
proteinuria in day 7 and day 14 compared to day 0 ([3]; 26 week old MRL/lpr mice, 5 mg/kg TSA s.c. daily, in comparison to vehicle): less proteinuria
Proteinuria, DAY 0 ([3]; individual 26 week old MRL/lpr mice of TSA group, day 0 (baseline), 24 hr urine): 964 µg/day and 10 µg/day and 16689 µg/day and 213 µg/day and 14420 µg/day and 107 µg/day and 5 µg/day
Proteinuria, DAY 7 ([3]; individual 26 week old MRL/lpr mice, 5 mg/kg TSA s.c. daily, day 7, 24 hr urine, 5 mg/kg): 340 µg/day and 4.6 µg/day and 274 µg/day and 54 µg/day and 4701 µg/day and 80 µg/day and 9 µg/day
Proteinuria, DAY 14 ([3]; individual 26 week old MRL/lpr mice, 5 mg/kg TSA s.c. daily, day 14, 24 hr urine, 5 mg/kg): 242 µg/day and 4.3 µg/day and 865 µg/day and 82 µg/day and 3081 µg/day and 25 µg/day and 10 µg/day
LPS and IFN-γ induced IL-12 p35 and p40 transcripts ([4]; splenocytes from 10-wk old MRL/lpr mice preincubated 18 hr, stimulated 6 or 18 hr): undetectable
TSA concentration that completely suppressed constitutive IL-12 p35 and p40 transcripts ([4]; splenocytes from 24-wk MRL/lpr mice): above 100 ng/ml
